From ChEMBL document CHEMBL1147127, “Halogenated cyclic peptides isolated from the sponge Corticium sp” (J Nat Prod, 2007)

Tested on: HCT-116
Assay: Cytotoxicity against HCT116 cells
Assay type: cell-based
Conditions: human; call rule not given here

## Cn1c(C(=O)NCC(=O)N[C@H]2CNC(=O)[C@@H](Cc3c[nH]c4ccc(Br)cc34)NC(=O)[C@@H](O)CNC(=O)[C@@H](CC(N)=O)NC2=O)cc(Cl)c1Cl [CYCLOCINAMIDE B]
  Activity: Not Active
